The results in this text go back to patent publication US11964967B2, “Cardiac sarcomere inhibitors” (Cytokinetics, Inc., priority 2018, dated 2024).

In this test the target is T1, bovine cardiac myofibrils (Bos taurus, UniProt Q9BE39).
T1 construct: full-length cardiac myosin in the context of the native sarcomere; from tissue; host or cells: bovine cardiac left ventricular tissue, homogenized with detergent (triton X-100)
Description: Skinned bovine cardiac myofibril ATPase assay (PK/LDH-coupled). The following applies: inhibition of steady-state ATPase activity of bovine cardiac myofibrils, calcium at 75% activation (pCa75), PM12 buffer pH 6.8; for IC50: read-out: CDMF75 IC50. The class given is biochemical. As to the method:
To evaluate the effect of compounds on the ATPase activity of full-length cardiac myosin in the context of the native sarcomere, skinned myofibril assays were performed. Bovine cardiac myofibrils were obtained by homogenizing bovine cardiac left ventricular tissue in the presence of a detergent such as triton X-100. Such treatment removes membranes and a majority of the soluble cytoplasmic proteins but leaves intact the cardiac sarcomeric acto-myosin apparatus. Myofibril preparations retain the ability to hydrolyze ATP in an Ca^2+ regulated manner ATPase activities of such myofibril preparations in the presence and absence of compounds were assayed at Ca^2+ concentrations activating to a defined fraction of the maximal rate (i.e., 25%, 75%). Small molecule agents were assessed for their ability to inhibit the steady-state ATPase activity of bovine cardiac myofibrils using pyruvate kinase and lactate dehydrogenase (PK/LDH)-coupled enzyme system. This assay regenerates myosin-produced ADP into ATP by oxidizing NADH, producing an absorbance change at 340 nm. Prior to testing small molecule agents, the bovine cardiac myofibrils were assessed for their calcium responsiveness and the calcium concentration that achieves either a 50% (pCa50) or 75% (pCa75) activation of the myofibril system was chosen as the final condition for assessing the inhibitory activity of the small molecule agents. All enzymatic activity was measured in a buffered solution containing 12 mM PIPES (piperazine-N,N′-bis(2-ethanesulfonic acid), 2 mM magnesium chloride at pH 6.8 (PM 12 buffer). Final assay conditions were 1 mg/mL of bovine cardiac myofibrils, 4 U/mL pyruvate kinase, 6 U/mL lactate dehydrogenase, 50 μM ATP, 0.1 mg/mL BSA (bovine serum albumin), 10 ppm antifoam, 1 mM DTT, 0.5 mM NADH, 1.5 mM PEP, 0.6 mM EGTA, and an amount of CaCl2) sufficient to achieve either 50% or 75% activation of the myofibril ATPase activity. Results for compounds tested are provided in Table A. Compounds tested were prepared in accordance with the synthetic procedures described herein.

T1 sequence (Q9BE39 whole entry): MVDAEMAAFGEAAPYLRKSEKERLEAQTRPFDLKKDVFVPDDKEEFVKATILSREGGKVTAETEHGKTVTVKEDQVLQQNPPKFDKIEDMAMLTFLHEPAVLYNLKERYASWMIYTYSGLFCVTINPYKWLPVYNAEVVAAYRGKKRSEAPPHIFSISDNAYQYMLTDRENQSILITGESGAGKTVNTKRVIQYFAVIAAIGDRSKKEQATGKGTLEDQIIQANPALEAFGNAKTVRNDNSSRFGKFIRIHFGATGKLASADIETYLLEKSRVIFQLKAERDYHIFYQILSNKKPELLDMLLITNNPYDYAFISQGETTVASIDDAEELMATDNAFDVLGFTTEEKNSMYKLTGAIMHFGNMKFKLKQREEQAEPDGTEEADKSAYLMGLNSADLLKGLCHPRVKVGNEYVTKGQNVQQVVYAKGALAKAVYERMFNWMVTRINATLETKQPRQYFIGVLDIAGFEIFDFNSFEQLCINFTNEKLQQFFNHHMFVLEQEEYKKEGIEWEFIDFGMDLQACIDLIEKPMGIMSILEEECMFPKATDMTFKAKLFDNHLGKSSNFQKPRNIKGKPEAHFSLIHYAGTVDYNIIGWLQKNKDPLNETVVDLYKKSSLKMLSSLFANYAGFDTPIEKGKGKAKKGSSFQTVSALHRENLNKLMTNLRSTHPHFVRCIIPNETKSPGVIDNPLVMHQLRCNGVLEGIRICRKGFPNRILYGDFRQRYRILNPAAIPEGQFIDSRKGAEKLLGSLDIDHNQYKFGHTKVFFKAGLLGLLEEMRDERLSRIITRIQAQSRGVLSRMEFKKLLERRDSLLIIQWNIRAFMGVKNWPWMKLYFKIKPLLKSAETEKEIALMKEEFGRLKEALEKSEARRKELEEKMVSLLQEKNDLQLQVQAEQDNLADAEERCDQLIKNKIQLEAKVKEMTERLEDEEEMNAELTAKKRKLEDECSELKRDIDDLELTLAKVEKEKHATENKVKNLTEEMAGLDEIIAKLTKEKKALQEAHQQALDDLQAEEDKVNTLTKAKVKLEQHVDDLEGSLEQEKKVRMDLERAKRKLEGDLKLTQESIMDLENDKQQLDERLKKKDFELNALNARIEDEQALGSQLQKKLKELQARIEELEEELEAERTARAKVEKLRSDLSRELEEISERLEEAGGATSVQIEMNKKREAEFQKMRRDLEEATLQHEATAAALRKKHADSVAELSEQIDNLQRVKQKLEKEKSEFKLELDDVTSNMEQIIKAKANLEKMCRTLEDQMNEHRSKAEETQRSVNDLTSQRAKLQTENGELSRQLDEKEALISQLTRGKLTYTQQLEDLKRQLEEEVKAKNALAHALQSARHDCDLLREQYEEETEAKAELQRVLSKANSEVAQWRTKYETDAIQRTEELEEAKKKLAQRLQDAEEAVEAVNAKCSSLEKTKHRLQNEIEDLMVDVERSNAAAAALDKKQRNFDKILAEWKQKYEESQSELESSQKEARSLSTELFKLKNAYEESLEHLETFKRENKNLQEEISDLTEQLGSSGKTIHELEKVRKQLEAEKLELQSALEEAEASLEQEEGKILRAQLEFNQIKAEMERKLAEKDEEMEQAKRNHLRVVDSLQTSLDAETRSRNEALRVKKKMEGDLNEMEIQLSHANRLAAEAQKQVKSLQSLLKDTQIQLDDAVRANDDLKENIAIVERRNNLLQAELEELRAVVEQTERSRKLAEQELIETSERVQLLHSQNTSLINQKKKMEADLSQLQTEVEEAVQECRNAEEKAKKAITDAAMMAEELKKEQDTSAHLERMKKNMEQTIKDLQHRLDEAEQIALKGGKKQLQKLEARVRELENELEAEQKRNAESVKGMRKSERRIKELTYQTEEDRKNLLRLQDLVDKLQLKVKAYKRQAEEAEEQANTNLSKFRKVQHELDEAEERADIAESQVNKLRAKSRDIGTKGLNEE
T1 sequence (P85100 whole entry partner): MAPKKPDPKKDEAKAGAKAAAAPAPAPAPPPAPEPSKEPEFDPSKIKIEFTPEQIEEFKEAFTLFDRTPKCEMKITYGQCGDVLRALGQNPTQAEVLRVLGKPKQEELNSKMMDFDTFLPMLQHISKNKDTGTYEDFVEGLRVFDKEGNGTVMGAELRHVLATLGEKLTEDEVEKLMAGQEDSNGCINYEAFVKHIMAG
T1 sequence (Q3SZE5 whole entry partner): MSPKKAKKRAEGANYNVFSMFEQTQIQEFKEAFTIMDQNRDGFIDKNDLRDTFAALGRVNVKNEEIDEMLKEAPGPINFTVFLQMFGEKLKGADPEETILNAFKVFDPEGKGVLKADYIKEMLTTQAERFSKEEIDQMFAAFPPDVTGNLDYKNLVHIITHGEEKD

Usually IC50 stands for the concentration that gives 50% inhibition. As to `CCc1nc(-c2ccc3c(c2)CCC3C(=O)Nc2ccnc(C)c2)no1` (racemic) [Compound 2, 5-(5-ethyl-1,2,4-oxadiazol-3-yl)-N-(2-methylpyridin-4-yl)-2,3-dihydro-1H-indene-1-carboxamide], the “CDMF75 IC15” value worked out at 1.6 µM and the IC50 stood at 5.5 µM. Take `CCc1nc(-c2ccc3c(c2)CCC3C(=O)Nc2ccnn2C)no1` (racemic) [Compound 5, 5-(5-ethyl-1,2,4-oxadiazol-3-yl)-N-(1-methyl-1H-pyrazol-5-yl)-2,3-dihydro-1H-indene-1-carboxamide]: the “CDMF75 IC15” value was above 39.2 µM and the IC50 was above 39.2 µM. The corresponding values for `CCc1nc(-c2ccc3c(c2)CCC3C(=O)Nc2ccccc2)no1` (racemic) [Compound 8, 5-(5-ethyl-1,2,4-oxadiazol-3-yl)-N-phenyl-2,3-dihydro-1H-indene-1-carboxamide] are 1.3 µM and 6.1 µM.

For `CCNC(=O)C1CCc2cc(-c3noc(CC)n3)ccc21` (racemic) [Compound 11, N-ethyl-5-(5-ethyl-1,2,4-oxadiazol-3-yl)-2,3-dihydro-1H-indene-1-carboxamide], the “CDMF75 IC15” value is above 39.2 µM and the half-maximal inhibitory concentration (IC50) was above 39.2 µM. The corresponding values for `Cc1cc(NC(=O)C2CCc3cc(-c4noc(C(F)F)n4)ccc32)ccn1` (racemic) [Compound 14, 5-(5-(difluoromethyl)-1,2,4-oxadiazol-3-yl)-N-(2-methylpyridin-4-yl)-2,3-dihydro-1H-indene-1-carboxamide] are 4.4 µM and 23.1 µM. The corresponding values for `Cc1cc(NC(=O)C2CCc3cc(-c4noc(C)n4)ccc32)ccn1` (racemic) [Compound 17, 5-(5-methyl-1,2,4-oxadiazol-3-yl)-N-(2-methylpyridin-4-yl)-2,3-dihydro-1H-indene-1-carboxamide] are 6.0 µM and 33.4 µM. `Cc1cc(NC(=O)C2CCc3cc(-c4noc(C5CC5)n4)ccc32)ccn1` (racemic) [Compound 20, 5-(5-cyclopropyl-1,2,4-oxadiazol-3-yl)-N-(2-methylpyridin-4-yl)-2,3-dihydro-1H-indene-1-carboxamide]: the “CDMF75 IC15” value turned out to be 2.6 µM and the concentration for half-maximal inhibition (IC50) is 13.9 µM.

For the compound `Cc1cc(NC(=O)C2CCc3cc(-c4noc(C(C)C)n4)ccc32)ccn1` (racemic) [Compound 23, 5-(5-isopropyl-1,2,4-oxadiazol-3-yl)-N-(2-methylpyridin-4-yl)-2,3-dihydro-1H-indene-1-carboxamide], the “CDMF75 IC15” value worked out at 5.6 µM and the half-inhibitory concentration (IC50) came out at 29 µM.

Consider `CCc1nc(-c2ccc3c(c2)CCC32COC(=O)N2)no1` (racemic) [Compound 26, 5-(5-ethyl-1,2,4-oxadiazol-3-yl)-2,3-dihydrospiro[indene-1,4′-oxazolidin]-2′-one], for which the “CDMF75 IC15” value came out at 0.8 µM and the IC50 came out at 3 µM. In the case of `Cc1nc(-c2ccc3c(c2)CCC32COC(=O)N2)no1` (racemic) [Compound 29, 5-(5-methyl-1,2,4-oxadiazol-3-yl)-2,3-dihydrospiro[indene-1,4′-oxazolidin]-2′-one], the “CDMF75 IC15” value was determined as 4.2 µM and the IC50 came to 18.4 µM. The matching figures for `CC(C)c1nc(-c2ccc3c(c2)CCC32COC(=O)N2)no1` (racemic) [Compound 32, 5-(5-isopropyl-1,2,4-oxadiazol-3-yl)-2,3-dihydrospiro[indene-1,4′-oxazolidin]-2′-one]: 2.7 µM and 11.4 µM. The corresponding values for `O=C1NC2(CCc3cc(-c4noc(C5CC5)n4)ccc32)CO1` (racemic) [Compound 35, 5-(5-cyclopropyl-1,2,4-oxadiazol-3-yl)-2,3-dihydrospiro[indene-1,4′-oxazolidin]-2′-one] are 1.5 µM and 5.8 µM.

Take `O=C1NC2(CCc3cc(-c4noc(C(F)F)n4)ccc32)CO1` (racemic) [Compound 38, 5-(5-(difluoromethyl)-1,2,4-oxadiazol-3-yl)-2,3-dihydrospiro[indene-1,4′-oxazolidin]-2′-one]: the “CDMF75 IC15” value came out at 2.5 µM and the half-maximal inhibitory concentration (IC50) came out at 14.1 µM. The corresponding values for `CCc1nc(-c2ccc3c(c2)OCC32COC(=O)N2)no1` (racemic) [Compound 41, 6-(5-ethyl-1,2,4-oxadiazol-3-yl)-2H-spiro[benzofuran-3,4′-oxazolidin]-2′-one] are 0.6 µM and 2.2 µM. The matching figures for `CCc1nc(-c2ccc3c(c2)CCC3C(=O)Nc2ccnc(C)c2)no1` (single isomer, unassigned) [Compound 2A]: 0.7 µM and 3 µM. The corresponding values for `CCc1nc(-c2ccc3c(c2)CCC3C(=O)Nc2ccnc(C)c2)no1` (single isomer, unassigned) [Compound 2B] are 17.5 µM and above 39.2 µM. Take `CCc1nc(-c2ccc3c(c2)CCC3C(=O)Nc2ccnn2C)no1` (single isomer, unassigned) [Compound 5A]: the “CDMF75 IC15” value was above 39.2 µM and the IC50 was above 39.2 µM. With `CCc1nc(-c2ccc3c(c2)CCC3C(=O)Nc2ccnn2C)no1` (single isomer, unassigned) [Compound 5B], the half-maximal inhibitory concentration (IC50) was above 39.2 µM. Regarding `CCc1nc(-c2ccc3c(c2)CCC3C(=O)Nc2ccccc2)no1` (single isomer, unassigned) [Compound 8A], the “CDMF75 IC15” value worked out at 0.7 µM and the IC50 amounted to 2.8 µM. The corresponding values for `CCc1nc(-c2ccc3c(c2)CCC3C(=O)Nc2ccccc2)no1` (single isomer, unassigned) [Compound 8B] are above 39.2 µM and above 39.2 µM. Consider `CCNC(=O)C1CCc2cc(-c3noc(CC)n3)ccc21` (single isomer, unassigned) [Compound 11A], for which the “CDMF75 IC15” value is above 39.2 µM and the 50% inhibitory concentration (IC50) was above 39.2 µM. The corresponding values for `CCNC(=O)C1CCc2cc(-c3noc(CC)n3)ccc21` (single isomer, unassigned) [Compound 11B] are 26.3 µM and above 39.2 µM. As to `Cc1cc(NC(=O)C2CCc3cc(-c4noc(C(F)F)n4)ccc32)ccn1` (single isomer, unassigned) [Compound 14A], the “CDMF75 IC15” value turned out to be 2.2 µM and the IC50 stood at 11 µM.

With `Cc1cc(NC(=O)C2CCc3cc(-c4noc(C(F)F)n4)ccc32)ccn1` (single isomer, unassigned) [Compound 14B], the “CDMF75 IC15” value is above 39.2 µM and the IC50 was above 39.2 µM. Take `Cc1cc(NC(=O)C2CCc3cc(-c4noc(C)n4)ccc32)ccn1` (single isomer, unassigned) [Compound 17A]: the “CDMF75 IC15” value turned out to be 2.9 µM and the half-maximal inhibitory concentration (IC50) stood at 13.6 µM. As for `Cc1cc(NC(=O)C2CCc3cc(-c4noc(C)n4)ccc32)ccn1` (single isomer, unassigned) [Compound 17B], the “CDMF75 IC15” value is above 39.2 µM and the IC50 was above 39.2 µM. The matching figures for `Cc1cc(NC(=O)C2CCc3cc(-c4noc(C5CC5)n4)ccc32)ccn1` (single isomer, unassigned) [Compound 20A]: 1.2 µM and 5.6 µM. The corresponding values for `Cc1cc(NC(=O)C2CCc3cc(-c4noc(C5CC5)n4)ccc32)ccn1` (single isomer, unassigned) [Compound 20B] are 33.2 µM and above 39.2 µM.
